Measurements as given in US4044043A, “Derivatives of 9-oxo-13-trans-prostenoic acid esters” (American Cyanamid Company, priority 1975, dated 1977).
In brackets after ≈: the same amount, converted by molar mass. Values belong to the compound of their own block, whether it stands above or below them.

Legend:
[1] = test system: gastric acid secretion; assay: Inhibition of Gastric Acid Secretion (Pylorous-Ligated Rat), Shay rat procedure; type: in vivo, rats (male, CFE strain); conditions: read-out: % Inhibition of Control Gastric Acid Secretion; for inhibition in vivo at 50 mg/kg: 50 mg./kg. intraduodenal; for inhibition in vivo at 100 mg/kg: 100 mg./kg. intraduodenal
Summary of the method: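 Male CFE rats were fasted 48 h, then pylorus-ligated under ether. Gastric contents were titrated with 0.02N or 0.04N NaOH to pH 8.4 for acid output, and ≥20% inhibition counted as active.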

[2] = test system: bronchospasms elicited by histamine; assay: Bronchodilator Activity (Konzett Assay) against histamine; type: in vivo, guinea pigs; conditions: Cavia porcellus; three logarithmic cumulative intravenous doses
Summary of the method: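 Guinea pigs given intravenous spasmogen (5-hydroxytryptamine, histamine or acetylcholine) per Konzett procedure. ED50 derived from three logarithmic cumulative intravenous doses of test compound.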

[3] = test system: Trichophyton tonsurans NIH 662; assay: agar-dilution streak-plate antimicrobial assay; type: cell-based; conditions: NIH662, read-out: Minimal inhibitory conc. (3)
Summary of the method: (§1)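 Agar plates containing two-fold dilutions of a 2.5 mg/ml compound solution (1 ml per 9 ml agar) were streak-inoculated with a loopful of live culture. Plates were incubated and streaks inspected by eye. The MIC is the concentration completely inhibiting growth.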

[4] = test system: Staphylococcus aureus Rose ATCC 14154; assay: agar-dilution streak-plate antimicrobial assay; type: cell-based; conditions: ATCC14154, read-out: Minimal inhibitory conc. (7)
Summary of the method: as §1

[5] = test system: Streptococcus pyogenes C 203; assay: agar-dilution streak-plate antimicrobial assay; type: cell-based; conditions: C203, read-out: Minimal inhibitory conc. (8)
Summary of the method: as §1

[6] = test system: Mycobacterium smegmatis ATCC 606; assay: agar-dilution streak-plate antimicrobial assay; type: cell-based; conditions: Mycolicibacterium smegmatis, ATCC606, read-out: Minimal inhibitory conc. (6)
Summary of the method: as §1

[7] = test system: Trichophyton mentagrophytes E 11; assay: agar-dilution streak-plate antimicrobial assay; type: cell-based; conditions: E11, read-out: Minimal inhibitory conc. (4)
Summary of the method: as §1

[8] = test system: Microsporum canis ATCC 10214; assay: agar-dilution streak-plate antimicrobial assay; type: cell-based; conditions: ATCC10214, read-out: Minimal inhibitory conc. (1)
Summary of the method: as §1

[9] = test system: Microsporum gypseum ATCC 14683; assay: agar-dilution streak-plate antimicrobial assay; type: cell-based; conditions: Nannizzia gypsea, ATCC14683, read-out: Minimal inhibitory conc. (2)
Summary of the method: as §1

[10] = test system: Trichophyton rubrum E 97; assay: agar-dilution streak-plate antimicrobial assay; type: cell-based; conditions: E97, read-out: Minimal inhibitory conc. (5)
Summary of the method: as §1

SMILES: CC/C=C\CC/C=C/[C@@H]1CCC(=O)[C@H]1CCCCCCC(=O)O (relative stereo) [9-oxo-13-trans-17-cis-prostadienoic acid]
inhibition in vivo at 100 mg/kg [1]: 21%
ED50 [2]: 0.65 mg/kg
MIC [3]: 62 µg/mL (≈ 193 µM)
MIC [8]: 125 µg/mL (≈ 390 µM)
MIC [4]: 250 µg/mL (≈ 780 µM)
MIC [5]: 62 µg/mL (≈ 193 µM)
MIC [6]: 62 µg/mL (≈ 193 µM)
MIC [9]: 62 µg/mL (≈ 193 µM)
MIC [10]: 125 µg/mL (≈ 390 µM)
MIC [7]: 62 µg/mL (≈ 193 µM)

SMILES: CCCCCC/C=C/[C@H]1CCC(=O)[C@@H]1CCCCCCC(=O)O (relative stereo) [9-oxo-13-trans-prostenoic acid]
inhibition in vivo at 200 mg/kg ([1]; 200 mg./kg. intraduodenal): 69%
ED50 [2]: 0.232 mg/kg
MIC [3]: 50 µg/mL (≈ 155 µM)
MIC [8]: 50 µg/mL (≈ 155 µM)
MIC [4]: 250 µg/mL (≈ 775 µM)
MIC [5]: 62 µg/mL (≈ 192 µM)
MIC [6]: 62 µg/mL (≈ 192 µM)
MIC [9]: 50 µg/mL (≈ 155 µM)
MIC [10]: 250 µg/mL (≈ 775 µM)
MIC [7]: 50 µg/mL (≈ 155 µM)

SMILES: CCC/C=C/[C@H]1CCC(=O)[C@@H]1CCCCCCC(=O)O (relative stereo) [9-oxo-18,19,20-trinor-13-trans-prostenoic acid]
inhibition in vivo at 50 mg/kg [1]: 50%
inhibition in vivo at 100 mg/kg [1]: 92%
ED50 [2]: 0.837 mg/kg
MIC [3]: 250 µg/mL (≈ 892 µM)
MIC [5]: 250 µg/mL (≈ 892 µM)
MIC [9]: 250 µg/mL (≈ 892 µM)
MIC [7]: 250 µg/mL (≈ 892 µM)

SMILES: O=C(O)CCCCCC[C@H]1C(=O)CC[C@@H]1/C=C/CCCCCCCl (relative stereo) [20-chloro-9-oxo-13-trans-prostenoic acid]
inhibition in vivo at 100 mg/kg [1]: 56%
ED50 [2]: 1.22 mg/kg
MIC [3]: 16 µg/mL (≈ 44.8 µM)
MIC [8]: 250 µg/mL (≈ 700 µM)
MIC [4]: 250 µg/mL (≈ 700 µM)
MIC [5]: 62 µg/mL (≈ 174 µM)
MIC [6]: 250 µg/mL (≈ 700 µM)
MIC [9]: 62 µg/mL (≈ 174 µM)
MIC [10]: 62 µg/mL (≈ 174 µM)
MIC [7]: 62 µg/mL (≈ 174 µM)

Second part, led by results:

MIC [3]: 100 µg/mL (≈ 297 µM)
MIC [4]: 100 µg/mL (≈ 297 µM)
MIC [5]: 10 µg/mL (≈ 29.7 µM)
MIC [6]: 25 µg/mL (≈ 74.3 µM)
MIC [7]: 100 µg/mL (≈ 297 µM)
SMILES: CCCCCC/C=C/[C@@H]1CCCC(=O)[C@H]1CCCCCCC(=O)O (relative stereo) [9-oxo-10a-homo-13-trans-prostenoic acid]
inhibition in vivo at 50 mg/kg [1]: 80%
ED50 [2]: 10.1 mg/kg

MIC [3]: 25 µg/mL (≈ 81 µM)
MIC [8]: 50 µg/mL (≈ 162 µM)
MIC [4]: 250 µg/mL (≈ 810 µM)
MIC [5]: 62 µg/mL (≈ 201 µM)
MIC [6]: 62 µg/mL (≈ 201 µM)
MIC [9]: 50 µg/mL (≈ 162 µM)
MIC [10]: 50 µg/mL (≈ 162 µM)
MIC [7]: 25 µg/mL (≈ 81 µM)
SMILES: CCCCC/C=C/[C@H]1CCC(=O)[C@@H]1CCCCCCC(=O)O (relative stereo) [9-oxo-20-nor-13-trans-prostenoic acid]
inhibition in vivo at 100 mg/kg [1]: 49%
ED50 [2]: 0.126 mg/kg

MIC [3]: 25 µg/mL (≈ 81 µM)
MIC [8]: 50 µg/mL (≈ 162 µM)
MIC [4]: 250 µg/mL (≈ 810 µM)
MIC [5]: 62 µg/mL (≈ 201 µM)
MIC [6]: 62 µg/mL (≈ 201 µM)
MIC [9]: 50 µg/mL (≈ 162 µM)
MIC [10]: 50 µg/mL (≈ 162 µM)
MIC [7]: 25 µg/mL (≈ 81 µM)
SMILES: CC(C)CC/C=C/[C@@H]1CCC(=O)[C@H]1CCCCCCC(=O)O (relative stereo) [17-methyl-9-oxo-19,20-dinor-13-trans-prostenoic acid]
inhibition in vivo at 100 mg/kg [1]: 28%
ED50 [2]: 1.07 mg/kg

MIC [3]: 250 µg/mL (≈ 794 µM)
MIC [8]: 250 µg/mL (≈ 794 µM)
MIC [9]: 250 µg/mL (≈ 794 µM)
MIC [10]: 250 µg/mL (≈ 794 µM)
MIC [7]: 250 µg/mL (≈ 794 µM)
SMILES: O=C(O)CCCCCC[C@@H]1C(=O)CC[C@H]1/C=C/CCCCl (relative stereo) [20-chloro-9-oxo-17,18,19-trinor-13-trans-prostenoic acid]
inhibition in vivo at 100 mg/kg [1]: 34%
ED50 [2]: 0.928 mg/kg

MIC [3]: 25 µg/mL (≈ 74.3 µM)
MIC [8]: 100 µg/mL (≈ 297 µM)
MIC [4]: 50 µg/mL (≈ 149 µM)
MIC [5]: 10 µg/mL (≈ 29.7 µM)
MIC [6]: 25 µg/mL (≈ 74.3 µM)
MIC [9]: 50 µg/mL (≈ 149 µM)
MIC [10]: 100 µg/mL (≈ 297 µM)
MIC [7]: 25 µg/mL (≈ 74.3 µM)
SMILES: CCCCCCC/C=C/[C@@H]1CCC(=O)[C@H]1CCCCCCC(=O)O (relative stereo) [20-methyl-9-oxo-13-trans-prostenoic acid]
inhibition in vivo at 100 mg/kg [1]: 34%
ED50 [2]: 0.126 mg/kg
